{"source": "patent US20230241226A1", "about": "“COMPOUNDS FOR TARGETED DEGRADATION OF CARRIER PROTEINS AND USES THEREOF” (CeMM - Forschungszentrum für Molekulare Medizin GmbH, priority 2019, published 2023)", "biological_target": "T1, dTAG-HA SLC38A2 (knock-in) (Homo sapiens, UniProt Q96QD8+Q96SW2)", "T1 construct": "SLC38A2 was selected for endogenous tagging at the N-terminus; endogenous in cells", "T1 sequence (Q96SW2 whole entry)": "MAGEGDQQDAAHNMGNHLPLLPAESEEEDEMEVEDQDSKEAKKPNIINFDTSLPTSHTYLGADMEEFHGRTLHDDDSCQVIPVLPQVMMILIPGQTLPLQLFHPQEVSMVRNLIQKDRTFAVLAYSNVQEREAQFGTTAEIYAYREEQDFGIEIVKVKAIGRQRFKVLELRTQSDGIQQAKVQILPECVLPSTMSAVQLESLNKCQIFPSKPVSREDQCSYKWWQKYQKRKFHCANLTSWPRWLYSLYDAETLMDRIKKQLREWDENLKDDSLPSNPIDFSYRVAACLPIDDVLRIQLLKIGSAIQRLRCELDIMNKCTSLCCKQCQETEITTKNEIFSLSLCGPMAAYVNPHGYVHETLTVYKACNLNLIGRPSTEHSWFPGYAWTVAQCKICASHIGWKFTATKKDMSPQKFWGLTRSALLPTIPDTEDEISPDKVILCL", "T1 sequence (Q16531 whole entry, further chain)": "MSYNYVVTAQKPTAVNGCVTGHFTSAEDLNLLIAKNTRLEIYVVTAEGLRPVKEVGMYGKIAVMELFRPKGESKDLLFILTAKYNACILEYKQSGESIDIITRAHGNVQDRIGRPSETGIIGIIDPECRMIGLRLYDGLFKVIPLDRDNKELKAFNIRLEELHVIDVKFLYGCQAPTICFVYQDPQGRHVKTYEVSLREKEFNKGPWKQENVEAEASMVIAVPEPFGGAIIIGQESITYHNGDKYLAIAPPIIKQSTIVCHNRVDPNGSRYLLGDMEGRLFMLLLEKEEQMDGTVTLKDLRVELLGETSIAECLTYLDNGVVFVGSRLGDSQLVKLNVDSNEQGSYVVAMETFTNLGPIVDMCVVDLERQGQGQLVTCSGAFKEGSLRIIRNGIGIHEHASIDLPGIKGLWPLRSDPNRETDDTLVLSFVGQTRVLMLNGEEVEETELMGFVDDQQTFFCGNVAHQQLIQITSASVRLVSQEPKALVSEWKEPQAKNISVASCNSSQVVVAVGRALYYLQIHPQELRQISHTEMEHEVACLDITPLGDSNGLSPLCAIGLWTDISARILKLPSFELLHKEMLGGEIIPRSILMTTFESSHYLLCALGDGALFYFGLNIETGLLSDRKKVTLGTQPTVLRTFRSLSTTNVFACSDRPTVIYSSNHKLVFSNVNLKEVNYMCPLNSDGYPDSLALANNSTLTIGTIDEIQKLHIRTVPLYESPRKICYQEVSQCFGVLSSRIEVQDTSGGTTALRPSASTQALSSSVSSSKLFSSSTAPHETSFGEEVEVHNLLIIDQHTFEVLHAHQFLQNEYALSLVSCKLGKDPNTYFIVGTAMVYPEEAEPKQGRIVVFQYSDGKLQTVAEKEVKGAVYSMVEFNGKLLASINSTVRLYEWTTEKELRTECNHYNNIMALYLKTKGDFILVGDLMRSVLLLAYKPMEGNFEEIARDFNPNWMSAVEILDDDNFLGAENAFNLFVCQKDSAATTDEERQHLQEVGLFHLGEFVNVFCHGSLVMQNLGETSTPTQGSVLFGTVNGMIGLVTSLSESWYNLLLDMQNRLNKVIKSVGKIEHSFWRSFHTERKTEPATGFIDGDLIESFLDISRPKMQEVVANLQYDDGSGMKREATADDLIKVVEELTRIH", "T1 sequence (Q96QD8 other isoform, or with tags, fused parts or gaps)": "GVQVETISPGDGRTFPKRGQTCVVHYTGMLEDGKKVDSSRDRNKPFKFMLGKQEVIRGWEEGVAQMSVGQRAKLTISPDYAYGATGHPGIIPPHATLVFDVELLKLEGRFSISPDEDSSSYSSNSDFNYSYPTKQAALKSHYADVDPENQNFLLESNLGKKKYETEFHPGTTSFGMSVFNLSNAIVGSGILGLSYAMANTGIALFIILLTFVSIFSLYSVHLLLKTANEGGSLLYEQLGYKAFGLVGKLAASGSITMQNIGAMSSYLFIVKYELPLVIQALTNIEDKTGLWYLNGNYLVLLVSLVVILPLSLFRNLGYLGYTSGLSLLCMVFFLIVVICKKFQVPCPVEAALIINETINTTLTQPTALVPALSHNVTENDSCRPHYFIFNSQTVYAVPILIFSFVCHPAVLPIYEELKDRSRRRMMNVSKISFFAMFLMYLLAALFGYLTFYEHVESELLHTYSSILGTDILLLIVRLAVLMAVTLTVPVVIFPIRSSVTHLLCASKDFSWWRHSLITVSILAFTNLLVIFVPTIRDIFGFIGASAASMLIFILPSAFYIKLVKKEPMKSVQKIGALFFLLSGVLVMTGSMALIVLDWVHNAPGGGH", "experiment": "dTAG knock-in: degradation of endogenously tagged SLC38A2 induced by amino acid starvation", "type": "cell-based", "source_text": "(A) dTAG knock-in: SLC38A2 was tagged at N-terminus with dTAG-HA. Blasticidn was used as the selection marker. Single cell clones were derived and characterized as previously described. Two representative clones, B7 and C9 are presented here.\n(B) The expression of dTAG-HA SLC38A2 was induced by replacing the normal culture media with media deprived of amino acids and FBS. Expression of the endogenous SLC is induced rapidly and was monitored by immunofluorescence imaging and quantified by automated image analysis. Representative images are shown.\n(C)The effect of amino acid starvation on dTAG-HA SLC38A2 expression in HAP1 cells. Cells were treated with 0.5 µM dTAG13 and/or media lacking amino acids/FBS for either 6 or 10 hours, after which expression and degradation were monitored via western blot.\n(D) Immunofluorescence imaging of two different HAP1 clones expressing dTAG-HA SLC38A2. Cells were incubated in media lacking amino acids/FBS for 8 hours and treated with 0.5 µM dTAG13 for either 8 or 10 hours. Expression of the endogenous SLC is induced rapidly and was monitored by immunofluorescence and quantified by automated image analysis. Representative images are presented.\nHEK293T, LS180 were obtained from ATCC (Manassas, VA, USA), HAP1 WT, HAP1 -/-SLC38A2 (HZGHC001975c003), HAP1 -/-SLC38A9 (HZGHC000777c011) were obtained from Horizon Genomics. […]\nFor immunoblotting, whole cell extracts were prepared using RIPA lysis buffer (25 mM Tris/HCl pH 7.6, 150 mM NaCl, 1% NP-40, 1% sodium deoxycholate, 0.1% SDS, EDTA-free protease inhibitor (Roche) and phosphatase inhibitors 2+3 (Sigma- Aldrich)). […] Protein extracts were quantified and normalized using the BCA assay (Thermo Scientific). […]", "note": "“Also recorded” adds a separate entry of the source.", "data": [{"smiles": "CC[C@H](C(=O)N1CCCC[C@H]1C(=O)O[C@H](CCc1ccc(OC)c(OC)c1)c1ccccc1OCC(=O)NCCCCCCOc1cccc2c1C(=O)N(C1CCC(=O)NC1=O)C2=O)c1cc(OC)c(OC)c(OC)c1", "note": "(stereo partly drawn) [dTAG13]", "values": [{"measurement": "degradation of knock-in dTAG-HA SLC38A2 (western blot)", "setting": "HAP1, 0.5 µM cotreatment with media lacking amino acids/FBS, 6 or 10 hours", "result": "Near complete degradation"}, {"measurement": "SLC38A2 expression after pre-treatment (immunofluorescence, automated image analysis)", "setting": "HAP1 knock-in clones, 0.5 µM, 2 hours pre-treatment, 8 hours starvation", "result": "completely abrogate any SLC expression; also recorded: completely ablated"}, {"measurement": "reduction of SLC38A2 expression by co-treatment", "setting": "HAP1 knock-in clones, 0.5 µM, co-treatment with starvation 8 hours", "result": "more than 50%"}]}]}
